Measured values as given in PubChem BioAssay (NCI).
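48-hour exposure; five concentrations; linearly interpolated endpoints. TGI marks complete inhibition of growth.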

Legend:
Assay in all cases: growth of human tumour cells (NCI), 48 h
[1] = system: DLD-1 colon
[2] = system: SNB-78 CNS
[3] = system: DMS 273 small cell lung
[4] = system: KM20L2 colon
[5] = system: LXFL 529 NSCLC
[6] = system: XF 498 CNS
[7] = system: HOP-18 NSCLC
[8] = system: RXF-631 renal

Measured: TGI

OC1=CN=C(C2CC2)Oc2ccccc21
> 100 µM: [1] | [2] | [3] | [4] | [5]

Cc1ccc(S(=O)(=O)C(C#N)c2nc3ccccc3nc2N2CCOCC2)cc1 (configuration not stated)
93.1 µM: [1]
> 100 µM: [4] | [5]
49.4 µM: [3]
81.7 µM: [6]
15.9 µM: [2]

C=CC(Br)(CBr)CCC(Br)C(C)(C)Br (configuration not stated)
19.6 µM: [2]
22.5 µM: [3]
27.7 µM: [5]
28.9 µM: [7]
33.4 µM: [1]

Cc1no[n+]([O-])c1/C=N/NS(=O)(=O)c1ccccc1
> 100 µM: [1] | [7] | [4] | [5]

CCOC(=O)c1ncn2c1[nH]c(=O)c1ccccc12
> 100 µM: [2] | [6] | [3] | [4] | [5]

CC(=O)C(CN(C)Cc1ccccc1)C(c1ccccc1)c1c(O)c2ccccc2oc1=O (configuration not stated)
> 100 µM: [1] | [2] | [3] | [4] | [5]

C[N+](C)(C)CC(=O)N/N=C/c1oc(-c2cccc([N+](=O)[O-])c2)c(-c2cccc([N+](=O)[O-])c2)c1[N+](=O)[O-]
> 100 µM: [1] | [4] | [8]

CC1(Br)S(=O)(=O)OCCOS1(=O)=O
not listed: [7] | [8]
> 100 µM: all other assays above

COc1ccccc1NC(=O)CC(=O)n1nc(-c2ccccc2)c(N=Nc2ccccc2[N+](=O)[O-])c1-c1ccccc1
> 100 µM: all assays above

O=S(=O)(c1ccccc1)n1cnc(CCc2ccccc2)n1
not listed: [6] | [8]
> 100 µM: all other assays above

C=C(C)C1Cc2c(cc(OC)c3c(=O)c4ccccc4n(C)c23)O1 (configuration not stated)
not listed: [8]
> 100 µM: all other assays above

COC(=O)NN/C=C(\C=Nc1ccccc1)[N+](=O)[O-]
not listed: [2]
> 100 µM: all other assays above
